Results on eleven compounds are retold here after ChEMBL document CHEMBL1125630, “Positional effects of sulfation in hirudin and hirudin PA related anticoagulant peptides” (J Med Chem, 1991).

This assay in a line: In vitro inhibition fibrin clot formation after addition of thrombin. The assay is classed as functional, Homo sapiens.
In turn, `CC[C@H](C)[C@H](NC(=O)[C@@H]1CCCN1C(=O)C(CCC(=O)O)NC(=O)[C@H](Cc1ccccc1)NC(=O)CCC(=O)O)C(=O)N1CCC[C@H]1C(=O)NC(CCC(=O)O)C(=O)NC(CCC(=O)O)C(=O)N[C@@H](Cc1ccc(OS(=O)(=O)O)cc1)C(=O)N[C@@H](CC(C)C)C(=O)NC(CCC(=O)O)C(=O)O` (stereo in doubt) came in with an IC50 of 87 nM.

For the compound `CC[C@H](C)[C@H](NC(=O)[C@@H]1CCCN1C(=O)C(CCC(=O)O)NC(=O)[C@H](Cc1ccc(O)cc1)NC(=O)CCC(=O)O)C(=O)N1CCC[C@H]1C(=O)NC(CCC(=O)O)C(=O)NC(CCC(=O)O)C(=O)N[C@@H](C)C(=O)N[C@@H](Cc1ccc(NS(=O)(=O)O)cc1)C(=O)NC(CCC(=O)O)C(=O)O` (stereo in doubt), inhibition was half-maximal at 2500 nM (IC50).

`CC[C@H](C)[C@H](NC(=O)[C@@H]1CCCN1C(=O)C(CCC(=O)O)NC(=O)[C@H](Cc1ccc(O)cc1)NC(=O)CCC(=O)O)C(=O)N1CCC[C@H]1C(=O)NC(CCC(=O)O)C(=O)NC(CCC(=O)O)C(=O)N[C@@H](C)C(=O)N[C@@H](Cc1ccc(N)cc1)C(=O)NC(CCC(=O)O)C(=O)O` (stereo in doubt) gave an IC50 of 2900 nM.

Consider `CC[C@H](C)[C@H](NC(=O)[C@@H]1CCCN1C(=O)C(CCC(=O)O)NC(=O)[C@H](Cc1ccc(O)cc1)NC(=O)CCC(=O)O)C(=O)N1CCC[C@H]1C(=O)NC(CCC(=O)O)C(=O)NC(CCC(=O)O)C(=O)N[C@@H](C)C(=O)N[C@@H](Cc1ccc([N+](=O)[O-])cc1)C(=O)NC(CCC(=O)O)C(=O)O` (stereo in doubt), for which 710 nM corresponded to half-maximal inhibition (IC50).

Turning to `CC[C@H](C)[C@H](NC(=O)[C@@H]1CCCN1C(=O)C(CCC(=O)O)NC(=O)[C@H](Cc1ccc(O)cc1)NC(=O)CCC(=O)O)C(=O)N1CCC[C@H]1C(=O)NC(CCC(=O)O)C(=O)NC(CCC(=O)O)C(=O)N[C@@H](Cc1ccc(N)cc1)C(=O)N[C@@H](CC(C)C)C(=O)NC(CCC(=O)O)C(=O)O` (stereo in doubt), it took 380 nM to reach half-maximal inhibition (IC50).

With H-GDFEPIPEDAYDE-OH, the IC50 amounted to 2700 nM.

Compound `CC[C@H](C)[C@H](NC(=O)[C@@H]1CCCN1C(=O)C(CCC(=O)O)NC(=O)[C@H](Cc1ccc(O)cc1)NC(=O)CCC(=O)O)C(=O)N1CCC[C@H]1C(=O)NC(CCC(=O)O)C(=O)NC(CCC(=O)O)C(=O)N[C@@H](Cc1ccc([N+](=O)[O-])cc1)C(=O)N[C@@H](CC(C)C)C(=O)NC(CCC(=O)O)C(=O)O` (stereo in doubt) gave an IC50 of 2800 nM.

Compound `CC[C@H](C)[C@H](NC(=O)[C@@H]1CCCN1C(=O)C(CCC(=O)O)NC(=O)[C@H](Cc1ccccc1)NC(=O)CCC(=O)O)C(=O)N1CCC[C@H]1C(=O)NC(CCC(=O)O)C(=O)NC(CCC(=O)O)C(=O)N[C@@H](C)C(=O)N[C@@H](Cc1ccc(O)cc1)C(=O)NC(CCC(=O)O)C(=O)O` (stereo in doubt) yielded an IC50 of 1200 nM.

`CC[C@H](C)[C@H](NC(=O)[C@@H]1CCCN1C(=O)C(CCC(=O)O)NC(=O)[C@H](Cc1ccccc1)NC(=O)CCC(=O)O)C(=O)N1CCC[C@H]1C(=O)NC(CCC(=O)O)C(=O)NC(CCC(=O)O)C(=O)N[C@@H](C)C(=O)N[C@@H](Cc1ccc(OS(=O)(=O)O)cc1)C(=O)NC(CCC(=O)O)C(=O)O` (stereo in doubt) yielded an IC50 of 300 nM.

Consider `CC[C@H](C)[C@H](NC(=O)[C@@H]1CCCN1C(=O)C(CCC(=O)O)NC(=O)[C@H](Cc1ccccc1)NC(=O)CCC(=O)O)C(=O)N1CCC[C@H]1C(=O)NC(CCC(=O)O)C(=O)NC(CCC(=O)O)C(=O)N[C@@H](Cc1ccc(O)cc1)C(=O)N[C@@H](CC(C)C)C(=O)NC(CCC(=O)O)C(=O)O` (stereo in doubt), for which the IC50 stood at 1600 nM.

With `CC[C@H](C)[C@H](NC(=O)[C@@H]1CCCN1C(=O)C(CCC(=O)O)NC(=O)[C@H](Cc1ccc(O)cc1)NC(=O)CCC(=O)O)C(=O)N1CCC[C@H]1C(=O)NC(CCC(=O)O)C(=O)NC(CCC(=O)O)C(=O)N[C@@H](Cc1ccc(NS(=O)(=O)O)cc1)C(=O)N[C@@H](CC(C)C)C(=O)NC(CCC(=O)O)C(=O)O` (stereo in doubt), the IC50 is 120 nM.

Usually IC50 stands for the concentration needed to halve the response being measured. Low values mean inhibition by little substance, high ones a need for much substance.
